Experimental findings from ChEMBL document CHEMBL1141121, “Selective inhibition of MCF-7(piGST) breast tumors using glutathione transferase-derived 2-methylene-cycloalkenones” (J Med Chem, 2005) are described below.

Assay type in all cases: cell-based
Assay [1] addresses T1, Glutathione S-transferase P (Homo sapiens, UniProt P09211). Briefly: Inhibitory concentration against GSTP1-1 over-expressed in MCF-7piGST cells.
Target sequence in this assay (P09211 whole entry): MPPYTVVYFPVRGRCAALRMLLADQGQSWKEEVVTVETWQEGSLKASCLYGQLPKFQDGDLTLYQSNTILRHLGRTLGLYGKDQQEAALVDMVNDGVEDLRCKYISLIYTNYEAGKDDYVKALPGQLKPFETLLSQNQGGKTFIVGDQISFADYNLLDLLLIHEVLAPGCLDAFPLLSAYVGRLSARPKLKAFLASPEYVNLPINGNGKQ
In assay [2] the target is T1, Glutathione S-transferase P. Briefly: Inhibitory concentration against GSTP1-1 over-expressed in MCF7wt cells.
Target sequence in this assay (P09211 whole entry): as above
For assay [3] the target is unchanged. Briefly: Ratio between MCF7wt to MCF-7piGST cells overexpressing in GSTP1-1.
Target sequence in this assay (P09211 2-210 limits assumed): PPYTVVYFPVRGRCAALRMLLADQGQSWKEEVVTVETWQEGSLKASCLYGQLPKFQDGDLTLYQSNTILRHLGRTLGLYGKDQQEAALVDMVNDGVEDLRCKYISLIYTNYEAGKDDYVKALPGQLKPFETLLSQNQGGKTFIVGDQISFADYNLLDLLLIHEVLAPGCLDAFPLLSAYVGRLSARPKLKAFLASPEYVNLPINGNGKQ

A word on the IC50: it is the concentration at which inhibition is half-maximal. High values mean weaker potency, low ones greater potency. In the case of `C/C=C/C(=O)OCC1=CCCCC1=O`, the half-inhibitory concentration (IC50) in assay [1] was 13.2 µM; in assay [2], 29.6 µM. Moreover, the Ratio in assay [3] stood at 2.2.
The like results for `C/C=C/OC(=O)CC1=CCCCCC1=O` were, in that order, 2.6 µM, 10.8 µM and 4.2.
